This note sets out measurements from patent US7501419B2, “4-Squarylpiperazine derivatives as antiviral agents” (priority 2006, dated 2009).

The assay deals with HIV-1. Nature of the assay: Single-round infectious HIV-1 luciferase reporter virus infection of HeLa CD4 cells. The class given is cell-based. To be noted: Human immunodeficiency virus 1, HeLa, 72 h. As for the experimental part: • Virus production—Human embryonic Kidney cell line, 293T, was propagated in Dulbecco's Modified Eagle Medium (Invitrogen, Carlsbad, Calif.) containing 10% fetal Bovine serum (FBS, Sigma, St. Louis, Mo.). • Virus infection—Human epithelial cell line, HeLa, expressing the HIV-1 receptor CD4 was propagated in Dulbecco's Modified Eagle Medium (Invitrogen, Carlsbad, Calif.) containing 10% fetal Bovine serum (FBS, Sigma, St. Louis , Mo.) and supplemented with 0.2 mg/mL Geneticin (Invitrogen, Carlsbad, Calif.).
Transfections were performed using lipofectAMINE PLUS reagent as described by the manufacturer (Invitrogen, Carlsbad, Calif.).
• 1. […] Compound was added in a 2 μl dimethylsulfoxide solution, so that the final assay concentration would be ≦10 μM. • 3. 100 μl of single-round infectious reporter virus in Dulbecco's Modified Eagle Medium was then added to the plated cells and compound at an approximate multiplicity of infection (MOI) of 0.01, resulting in a final volume of 200 μl per well. • 4. Virally-infected cells were incubated at 37 degrees Celsius, in a CO2 incubator, and harvested 72 h after infection. • 5. Viral infection was monitored by measuring luciferase expression from viral DNA in the infected cells using a luciferase reporter gene assay kit, as described by the manufacturer (Roche Molecular Biochemicals, Indianapolis, Ind.). Infected cell supernatants were removed and 50 μl of lysis buffer was added per well. After 15 minutes, 50 μl of freshly-reconstituted luciferase assay reagent was added per well. Luciferase activity was then quantified by measuring luminescence using a Wallac microbeta scintillation counter. • 6. […] An EC50 provides a method for comparing the antiviral potency of the compounds of this disclosure. The effective concentration for fifty percent inhibition (EC50) was calculated with the Microsoft Excel Xlfit curve fitting software. For each compound, curves were generated from percent inhibition calculated at 10 different concentrations by using a four parameter logistic model (model 205).
Consider `COc1cnc(Br)c2[nH]cc(C(=O)C(=O)N3CCN(c4c(-c5ccccc5)c(=O)c4=O)CC3)c12` [Number 34], for which the EC50 is 50 to 500 nM. To `COc1cnc(-n2ccc(C)n2)c2[nH]cc(C(=O)C(=O)N3CCN(c4c(-c5ccccc5)c(=O)c4=O)CC3)c12` [Number 40] belongs 50 to 500 nM. For the compound `COc1cnc(-c2cnccn2)c2[nH]cc(C(=O)C(=O)N3CCN(c4c(-c5ccccc5)c(=O)c4=O)CC3)c12` [Number 35], the EC50 lay in the range of 50 to 500 nM.

The compound `COc1ncc(OC)c2c(C(=O)C(=O)N3CCN(c4c(-c5cccs5)c(=O)c4=O)CC3)c[nH]c12` [Number 30] came in with an EC50 of 50 to 500 nM. Consider `CCN(Cc1ccccc1)c1c(N2CCN(C(=O)C(=O)c3c[nH]c4cccc(F)c34)CC2)c(=O)c1=O` [Number 22], for which the EC50 was above 5000 nM. The compound `O=C(C(=O)N1CCN(c2c(N3CCC4(CCCC4)CC3)c(=O)c2=O)CC1)c1c[nH]c2cccc(F)c12` [Number 26] returned an EC50 above 5000 nM. For the compound `COc1ncc(OC)c2c(C(=O)C(=O)N3CCN(c4c(-c5nccs5)c(=O)c4=O)CC3)c[nH]c12` [Number 43], the EC50 was 500 to 5000 nM.

In the case of `COc1ncc(OC)c2c(C(=O)C(=O)N3CCN(c4c(-c5ccc(F)cc5)c(=O)c4=O)CC3)c[nH]c12` [Number 41], the EC50 lay in the range of 50 to 500 nM. As for `COc1ncc(OC)c2c(C(=O)C(=O)N3CCN(c4c(-c5ccccc5)c(=O)c4=O)C[C@H]3C)c[nH]c12` [Number 32], the EC50 was 50 to 500 nM. For the compound `COc1ncc(OC)c2c(C(=O)C(=O)N3CCN(c4c(-c5ccccc5)c(=O)c4=O)C[C@@H]3C)c[nH]c12` [Number 33], the EC50 was 50 to 500 nM.

Compound `COc1ncc(OC)c2c(C(=O)C(=O)N3CCN(c4c(-c5ccccc5)c(=O)c4=O)[C@H](C)C3)c[nH]c12` [Number 39] had an EC50 of 50 to 500 nM.

Regarding `O=C(C(=O)N1CCN(c2c(-c3ccco3)c(=O)c2=O)CC1)c1c[nH]c2cccc(F)c12` [Number 28], the EC50 was in the range of 500 to 5000 nM. Regarding `CN1CCN(c2c(N3CCN(C(=O)C(=O)c4c[nH]c5cccc(F)c45)CC3)c(=O)c2=O)CC1` [Number 24], the EC50 was above 5000 nM. On to `O=C(C(=O)N1CCN(c2c(-c3cccs3)c(=O)c2=O)CC1)c1c[nH]c2cccc(F)c12` [Number 27], for which the EC50 lay within 50 to 500 nM. On to `CCCN(CCC)c1c(N2CCN(C(=O)C(=O)c3c[nH]c4cccc(F)c34)CC2)c(=O)c1=O` [Number 25], for which the EC50 is above 5000 nM.

The compound `COc1cnc(Cl)c2[nH]cc(C(=O)C(=O)N3CCN(c4c(-c5ccccc5)c(=O)c4=O)CC3)c12` [Number 31] yielded an EC50 of 50 to 500 nM. Consider `O=C(C(=O)N1CCN(c2c(N3CCSCC3)c(=O)c2=O)CC1)c1c[nH]c2cccc(F)c12` [Number 21], for which the half-maximal effective concentration (EC50) is above 5000 nM. The compound `O=C(C(=O)N1CCN(c2c(N3CCc4ccccc4C3)c(=O)c2=O)CC1)c1c[nH]c2cccc(F)c12` [Number 23] returned an EC50 above 5000 nM.

Compound `COc1cnc(-n2cncn2)c2[nH]cc(C(=O)C(=O)N3CCN(c4c(-c5ccccc5)c(=O)c4=O)CC3)c12` [Number 36] registered an EC50 of 50 to 500 nM. For `COc1cccc(-c2c(N3CCN(C(=O)C(=O)c4c[nH]c5c(OC)ncc(OC)c45)CC3)c(=O)c2=O)c1` [Number 42], the EC50 lay within 50 to 500 nM. Regarding `COc1ncc(OC)c2c(C(=O)C(=O)N3CCN(c4c(-c5ncco5)c(=O)c4=O)CC3)c[nH]c12` [Number 37], the EC50 lay within 500 to 5000 nM. The compound `COc1ncc(OC)c2c(C(=O)C(=O)N3CCN(c4c(-c5ccccc5)c(=O)c4=O)CC3)c[nH]c12` [Number 29] yielded an EC50 of 50 to 500 nM. On to `COc1ncc(OC)c2c(C(=O)C(=O)N3CCN(c4c(-c5ccccc5)c(=O)c4=O)[C@@H](C)C3)c[nH]c12` [Number 38], for which the EC50 is 50 to 500 nM.

As a reminder, the EC50 is the midpoint of the concentration-response curve.
